Measured values as given in patent publication US8685935B2, “Use of flavonoids to increase the bioavailability of hesperetin” (Nestec S.A., priority 2009, dated 2014).

System: Caco-2 cell monolayers
Experiment: Caco-2 cell monolayer Transwell model: formation and transport of hesperetin and its conjugates
Assay type: in vitro ADME
Details: 120 minutes upon exposure to 10 μM (5 nmol) hesperetin added to the apical compartment
Procedure: Caco-2 cell monolayers were grown on permeable filters that divide a two-compartment cell culture system. Although originally derived from a colonic adenoma carcinoma, differentiating Caco-2 cells are known to display morphological and biochemical properties of intestinal enterocytes including the formation of a polarized layer with expression of ABC transport proteins including Pgp, MRP1, MRP2 and BCRP and metabolizing enzymes.
Using the Caco-2 cell monolayer Transwell model in which the cells in the apical compartment were exposed to hesperetin, or combinations of hesperetin and other flavonoids, we studied the formation and transport of intestinal hesperetin conjugates, which were formed by the Caco-2 cells. 120 minutes upon exposure to 10 μM (5 nmol) hesperetin added to the apical compartment. […] These metabolites were identified as hesperetin 7-O-glucuronide and hesperetin 7-O-sulfate.

In the case of `COc1ccc([C@@H]2CC(=O)c3c(O)cc(O[C@@H]4O[C@H](C(=O)O)[C@@H](O)[C@H](O)[C@H]4O)cc3O2)cc1O` [hesperetin 7-O-glucuronide], the “amount of metabolite in apical compartment compared to basolateral” value is reported as “detected at much higher amounts in the apical compartment compared to the basolateral”.

`COc1ccc([C@@H]2CC(=O)c3c(O)cc(OS(=O)(=O)O)cc3O2)cc1O` [hesperetin 7-O-sulfate] was tested, and the “amount of metabolite in apical compartment compared to basolateral” value was “detected at much higher amounts in the apical compartment compared to the basolateral”.
